# Patent US5041567A, “Antibacterial monic acid derivatives” (Beecham Group plc, priority 1982, dated 1991)
# Like-named read-outs stand apart in the source and are kept apart here.
# Key:
# M. bovis NCTC 10131 = assay: microbe, parasite or virus in culture; type: cell-based; conditions: NCTC10131, 144 h
# [1] = system: Staph. aureus B4 (pen. resistant); assay: MIC against veterinary bacteria in vitro; conditions: Staphylococcus aureus, 18 h
# Procedure: (§1) The activity of the compounds of the Examples against various veterinarily important bacteria, was assayed in vitro using two-fold serial dilutions in Diagnostic Sensitivity Test Agar inoculated with 10^4 organisms.
# Staph. aureus Russell = assay: MIC against human bacteria in vitro; type: cell-based; conditions: Staphylococcus aureus; Staph. aureus Russell; 5% chocolated horse blood agar, 18 hours; read-out: MIC
# [2] = system: Corynebacterium pyogenes CY1; assay: MIC against veterinary bacteria in vitro; conditions: CY1, 18 h
# Procedure: as §1
# Past. multocida PA1 = assay: MIC against veterinary bacteria in vitro; conditions: Pasteurella multocida, PA1, 18 h
# Procedure: as §1
# [3] = system: Neisseria catarrhalis 1502; assay: MIC against human bacteria in vitro; type: cell-based; conditions: Neisseria catarrhalis 1502; 5% chocolated horse blood agar, 18 hours; read-out: MIC
# [4] = system: Haemophilus influenzae Wy21; assay: MIC against human bacteria in vitro; type: cell-based; conditions: Haemophilus influenzae Wy21; 5% chocolated horse blood agar, 18 hours; read-out: MIC
# M. suipneumoniae NB12 = assay: MIC against mycoplasma in vitro; type: cell-based; conditions: Mesomycoplasma hyopneumoniae
# Past. haemolytica PA5 = assay: MIC against veterinary bacteria in vitro; conditions: Mannheimia haemolytica, PA5, 18 h
# Procedure: as §1
# M. hyorhinis ATCC 25021 = assay: MIC against mycoplasma in vitro; type: cell-based; conditions: Mesomycoplasma hyorhinis, ATCC25021, 144 h
# M. suipneumoniae TAM 6N = assay: MIC against mycoplasma in vitro; type: cell-based; conditions: Mesomycoplasma hyopneumoniae, TAM6N, 144 h
# Strep. faecalis I = assay: MIC against human bacteria in vitro; type: cell-based; conditions: Enterococcus faecalis; Strep. faecalis I; 5% chocolated horse blood agar, 18 hours; read-out: MIC
# Strep. dysgalactiae SPD1 = assay: MIC against veterinary bacteria in vitro; conditions: Streptococcus dysgalactiae, SPD1, 18 h
# Procedure: as §1
# [5] = system: M. hyosynoviae ATCC 25591; assay: MIC against mycoplasma in vitro; type: cell-based; conditions: 144 h
# [6] = system: Ps. aeruginosa NCTC 10662; assay: MIC against human bacteria in vitro; type: cell-based; conditions: Pseudomonas aeruginosa, NCTC10662; Ps. aeruginosa NCTC 10662; 5% chocolated horse blood agar, 18 hours; read-out: MIC
# [7] = system: Corynebacterium xerosis 9755; assay: MIC against human bacteria in vitro; type: cell-based; conditions: Corynebacterium xerosis 9755; 5% chocolated horse blood agar, 18 hours; read-out: MIC
# Past. multocida PA2 = assay: MIC against veterinary bacteria in vitro; conditions: Pasteurella multocida, PA2, 18 h
# Procedure: as §1
# M. hyorhinis ATCC 23234 = assay: MIC against mycoplasma in vitro; type: cell-based; conditions: Mesomycoplasma hyorhinis, ATCC23234, 144 h
# [8] = system: M. bovigenitalium ATCC 14173; assay: MIC against mycoplasma in vitro; type: cell-based; conditions: 144 h
# K. aerogenes A = assay: MIC against human bacteria in vitro; type: cell-based; conditions: Klebsiella aerogenes; K. aerogenes A; 5% chocolated horse blood agar, 18 hours; read-out: MIC
# M. suipneumoniae UCD 1 = assay: MIC against mycoplasma in vitro; type: cell-based; conditions: Mesomycoplasma hyopneumoniae, UCD1, 144 h
# [9] = system: Strep. suis (group D) SPS11; assay: MIC against veterinary bacteria in vitro; conditions: Streptococcus suis, 18 h
# Procedure: as §1
# Strep. pneumoniae CN33 = assay: MIC against human bacteria in vitro; type: cell-based; conditions: Streptococcus pneumoniae
# Bord. bronchiseptica B09 = assay: MIC against veterinary bacteria in vitro; conditions: Bordetella bronchiseptica, B09, 18 h
# Procedure: as §1
# M. suipneumoniae HK(2) = assay: MIC against mycoplasma in vitro; type: cell-based; conditions: Mesomycoplasma hyopneumoniae, 144 h
# M. suipneumoniae MS 16 = assay: MIC against mycoplasma in vitro; type: cell-based; conditions: Mesomycoplasma hyopneumoniae, MS16, 144 h
# Strep. agalactiae 2788-B = assay: MIC against human bacteria in vitro; type: cell-based; conditions: Streptococcus agalactiae; Strep. agalactiae 2788-B; 5% chocolated horse blood agar, 18 hours; read-out: MIC
# P. mirabilis 889 = assay: MIC against human bacteria in vitro; type: cell-based
# M. suipneumoniae LABER = assay: MIC against mycoplasma in vitro; type: cell-based; conditions: Mesomycoplasma hyopneumoniae, 144 h
# [10] = system: M. suipneumoniae ATCC 25095; assay: MIC against mycoplasma in vitro; type: cell-based; conditions: Mesomycoplasma hyopneumoniae, ATCC25095, 144 h
# [11] = system: Erysipelothrix rhusiopathiae NCTC 8163; assay: MIC against veterinary bacteria in vitro; conditions: Erysipelothrix rhusiopathiae, NCTC8163, 18 h
# Procedure: as §1
# [12] = system: M. suipneumoniae J2206/183^b; assay: MIC against mycoplasma in vitro; type: cell-based; conditions: Mesomycoplasma hyopneumoniae, 144 h
# Sarcina lutea 8340 = assay: MIC against human bacteria in vitro; type: cell-based; conditions: Micrococcus luteus; Sarcina lutea 8340; 5% chocolated horse blood agar, 18 hours; read-out: MIC
# Staph. aureus W2827 = assay: MIC against human bacteria in vitro; type: cell-based; conditions: Staphylococcus aureus; Staph. aureus W2827; 5% chocolated horse blood agar, 18 hours; read-out: MIC
# Bord. bronchiseptica B08 = assay: MIC against veterinary bacteria in vitro; conditions: Bordetella bronchiseptica, B08, 18 h
# Procedure: as §1
# [13] = Strep. pneumoniae CN33, 5% chocolated horse blood agar, 18 hours, read-out: MIC
# [14] = Proteus mirabilis, P. mirabilis 889, 5% chocolated horse blood agar, 18 hours, read-out: MIC
# [15] = 144 h, M. suipneumoniae NB12, Friis broth, 0.9% agarose, 6 days, 37° C., read-out: MIC
# [16] = M. suipneumoniae TAM 6N, 6 days, 37° C., read-out: MIC
# [17] = M. hyosynoviae ATCC 25591, 6 days, 37° C., read-out: MIC
# [18] = M. suipneumoniae UCD 1, 6 days, 37° C., read-out: MIC
# [19] = M. suipneumoniae HK(2), 6 days, 37° C., read-out: MIC
# [20] = M. suipneumoniae LABER, 6 days, 37° C., read-out: MIC
# [21] = M. suipneumoniae ATCC 25095, 6 days, 37° C., read-out: MIC
# [22] = M. suipneumoniae J2206/183^b, 6 days, 37° C., read-out: MIC
# [23] = M. hyorhinis ATCC 25021, 6 days, 37° C., read-out: MIC
# [24] = M. hyorhinis ATCC 23234, 6 days, 37° C., read-out: MIC
# [25] = M. bovigenitalium ATCC 14173, 6 days, 37° C., read-out: MIC
# [26] = M. suipneumoniae MS 16, 6 days, 37° C., read-out: MIC
SMILES,MIC (M. bovis NCTC 10131) [µg/mL],MIC [1] [µg/mL],MIC (Staph. aureus Russell) [µg/mL],MIC [2] [µg/mL],MIC (Past. multocida PA1) [µg/mL],MIC [3] [µg/mL],MIC [4] [µg/mL],MIC (Past. haemolytica PA5) [µg/mL],MIC (Strep. faecalis I) [µg/mL],MIC (Strep. dysgalactiae SPD1) [µg/mL],MIC [6] [µg/mL],MIC [7] [µg/mL],MIC (Past. multocida PA2) [µg/mL],MIC (K. aerogenes A) [µg/mL],MIC [9] [µg/mL],MIC (Bord. bronchiseptica B09) [µg/mL],MIC (Strep. agalactiae 2788-B) [µg/mL],MIC [11] [µg/mL],MIC (Sarcina lutea 8340) [µg/mL],MIC (Staph. aureus W2827) [µg/mL],also measured
"C/C(=C\c1ncc(C)o1)C[C@@H]1OC[C@H](C[C@@H]2O[C@H]2[C@@H](C)[C@H](C)O)[C@@H](O)[C@H]1O [Example 14, 5-Methyl-2-(1-normon-2-yl) oxazole A]",0.05,10,16,> 80,10,16,2,> 80,> 128,2.5,> 128,> 128,10,> 128,> 80,> 80,32,> 80,> 128,16,"MIC (M. suipneumoniae NB12; NB12, 144 h): 5 µg/mL; MIC (M. hyorhinis ATCC 25021): 2.5 µg/mL; MIC (M. suipneumoniae TAM 6N): 5 µg/mL; MIC [5]: 5 µg/mL; MIC (M. hyorhinis ATCC 23234): 2.5 µg/mL; MIC [8]: 0.1 µg/mL; MIC (M. suipneumoniae UCD 1): 5 µg/mL; MIC (Strep. pneumoniae CN33; [13]): 32 µg/mL; MIC (M. suipneumoniae HK(2)): 5 µg/mL; MIC (M. suipneumoniae MS 16): 2.5 µg/mL; MIC (P. mirabilis 889; [14]): > 128 µg/mL; MIC (M. suipneumoniae LABER): 2.5 µg/mL; MIC [10]: 2.5 µg/mL; MIC [12]: 5 µg/mL; MIC (Bord. bronchiseptica B08): > 80 µg/mL"
"C/C(=C\c1ncc(-c2ccc(C=O)cc2)o1)C[C@@H]1OC[C@H](C[C@@H]2O[C@H]2[C@@H](C)[C@H](C)O)[C@@H](O)[C@H]1O [Example 15, 5-p-Formylphenyl-2-(1-normon-2-yl) oxazole A]",0.05,2.5,8,> 80,10,4,4,80,> 128,1.25,> 128,> 128,< 0.039,> 128,20,20,8,> 80,> 128,8,"MIC (M. suipneumoniae NB12; [15]): 0.5 µg/mL; MIC (M. hyorhinis ATCC 25021): 0.25 µg/mL; MIC (M. suipneumoniae TAM 6N; [16]): 0.5 µg/mL; MIC [5, 17]: 0.5 µg/mL; MIC (M. hyorhinis ATCC 23234): 0.25 µg/mL; MIC [8]: 0.05 µg/mL; MIC (M. suipneumoniae UCD 1; [18]): 0.5 µg/mL; MIC (Strep. pneumoniae CN33; [13]): 8 µg/mL; MIC (M. suipneumoniae HK(2); [19]): 0.5 µg/mL; MIC (M. suipneumoniae MS 16): 0.25 µg/mL; MIC (P. mirabilis 889; [14]): > 128 µg/mL; MIC (M. suipneumoniae LABER; [20]): 0.5 µg/mL; MIC [10, 21]: 0.5 µg/mL; MIC [12, 22]: 0.5 µg/mL; MIC (Bord. bronchiseptica B08): 80 µg/mL"
"COC(=O)c1ccc(-c2cnc(/C=C(\C)C[C@@H]3OC[C@H](C[C@@H]4O[C@H]4[C@@H](C)[C@H](C)O)[C@@H](O)[C@H]3O)o2)cc1 [Example 16, 5-p-Methoxycarbonylphenyl-2-(1-normon-2-yl) oxazole A]",0.05,5,4,> 80,40,8,2,> 80,> 64,1.25,> 64,> 64,< 0.039,> 64,20,40,4,80,> 64,4,"MIC (M. suipneumoniae NB12; [15]): 0.5 µg/mL; MIC (M. hyorhinis ATCC 25021; [23]): 0.25 µg/mL; MIC (M. suipneumoniae TAM 6N; [16]): 0.5 µg/mL; MIC [5, 17]: 0.5 µg/mL; MIC (M. hyorhinis ATCC 23234; [24]): 0.25 µg/mL; MIC [8, 25]: 0.1 µg/mL; MIC (M. suipneumoniae UCD 1; [18]): 0.5 µg/mL; MIC (Strep. pneumoniae CN33; [13]): 4 µg/mL; MIC (M. suipneumoniae HK(2); [19]): 0.5 µg/mL; MIC (M. suipneumoniae MS 16; [26]): 0.25 µg/mL; MIC (P. mirabilis 889; [14]): > 64 µg/mL; MIC (M. suipneumoniae LABER; [20]): 0.25 µg/mL; MIC [10, 21]: 0.25 µg/mL; MIC [12, 22]: 0.5 µg/mL; MIC (Bord. bronchiseptica B08): > 80 µg/mL"
"C/C(=C\c1ncc(-c2ccccc2)s1)C[C@@H]1OC[C@H](C[C@@H]2O[C@H]2[C@@H](C)[C@H](C)O)[C@@H](O)[C@H]1O [Example 29, 2-(1-Normon-2-yl)-5-phenylthiazole A]",0.5,10,100,> 80,> 80,50,50,> 80,> 100,20,> 100,> 100,80,> 100,> 80,> 80,50,> 80,> 100,50,"MIC (M. suipneumoniae NB12; [15]): 10 µg/mL; MIC (M. hyorhinis ATCC 25021; [23]): 10 µg/mL; MIC (M. suipneumoniae TAM 6N; [16]): > 10 µg/mL; MIC [5, 17]: > 10 µg/mL; MIC (M. hyorhinis ATCC 23234; [24]): > 10 µg/mL; MIC [8]: 1 µg/mL; MIC (M. suipneumoniae UCD 1; [18]): > 10 µg/mL; MIC (Strep. pneumoniae CN33; [13]): 50 µg/mL; MIC (M. suipneumoniae HK(2); [19]): > 10 µg/mL; MIC (M. suipneumoniae MS 16; [26]): 10 µg/mL; MIC (P. mirabilis 889; Proteus mirabilis, 889, 18 h): > 100 µg/mL; MIC (M. suipneumoniae LABER; [20]): 10 µg/mL; MIC [10, 21]: 10 µg/mL; MIC [12, 22]: > 10 µg/mL; MIC (Bord. bronchiseptica B08): > 80 µg/mL"
"C/C(=C\c1nc(C)c(C)o1)C[C@@H]1OC[C@H](C[C@@H]2O[C@H]2[C@@H](C)[C@H](C)O)[C@@H](O)[C@H]1O [Example 39, 4,5-Dimethyl-2-(1-normon-2-yl)oxazole A]",5,> 80,> 100,> 80,80,25,2.5,80,> 100,> 80,> 100,> 100,40,> 100,> 80,> 80,> 100,> 80,> 100,> 100,"MIC (M. suipneumoniae NB12; [15]): > 10 µg/mL; MIC (M. hyorhinis ATCC 25021; [23]): > 10 µg/mL; MIC (M. suipneumoniae TAM 6N; [16]): > 10 µg/mL; MIC [5, 17]: > 10 µg/mL; MIC (M. hyorhinis ATCC 23234; [24]): > 10 µg/mL; MIC [8, 25]: 5 µg/mL; MIC (M. suipneumoniae UCD 1; [18]): > 10 µg/mL; MIC (Strep. pneumoniae CN33; CN33, 18 h): 100 µg/mL; MIC (M. suipneumoniae HK(2); [19]): > 10 µg/mL; MIC (M. suipneumoniae MS 16; [26]): > 10 µg/mL; MIC (P. mirabilis 889; Proteus mirabilis, 889, 18 h): > 100 µg/mL; MIC (M. suipneumoniae LABER; [20]): > 10 µg/mL; MIC [10, 21]: > 10 µg/mL; MIC [12, 22]: > 10 µg/mL; MIC (Bord. bronchiseptica B08): > 80 µg/mL"
